Measured values: patent publication US4495358A, “Antibiotic pyrrolomycin E” (Meiji Seika Kaisha, Ltd., priority 1981, dated 1985)
≈ marks a conversion by molar mass, not a printed value.

Experiments:
mice = settings: mouse, in vivo, ip, 10 mg/kg
[1] = Nature of the substance (acidity); assay type: physicochemical
[2] = tested on: Escherichia coli W 3630 RGN823; assay: Minimum inhibitory concentration, agar dilution method; assay type: cell-based; settings: W3630RGN823, read-out: Minimum Inhibitory Concentration
Description: (§1) The physical and chemical properties and the minimum inhibitory concentration against various microorganisms as measured by agar dilution method of pyrrolomycin E as obtained by the above-described method are as follows: […]

[3] = tested on: Escherichia coli NIHJ JC-2; assay: as above; assay type: cell-based; settings: NIHJJC2
Description: as §1

[4] = tested on: Bacillus subtilis ATCC 6633; assay: as above; assay type: cell-based; settings: ATCC6633
Description: as §1

[5] = tested on: Staphylococcus epidermidis ATCC 14990; assay: as above; assay type: cell-based; settings: ATCC14990
Description: as §1

Salmonella typhi 0-901-W = assay: as above; assay type: cell-based; settings: Salmonella enterica, read-out: Minimum Inhibitory Concentration
Description: as §1

[6] = tested on: Klebsiella pneumoniae PCI-602; assay: as above; assay type: cell-based; settings: PCI602
Description: as §1

Proteus vulgaris OX-19 = assay: as above; assay type: cell-based; settings: OX19
Description: as §1

[7] = tested on: Pseudomonas aeruginosa IAM 1007; assay: as above; assay type: cell-based; settings: IAM1007
Description: as §1

[8] = tested on: Staphylococcus aureus Smith; assay: as above; assay type: cell-based
Description: as §1

[9] = tested on: Staphylococcus aureus FDA209PJC-1; assay: as above; assay type: cell-based; settings: FDA209PJC1
Description: as §1

[10] = tested on: Serratia marcescens No. 1; assay: as above; assay type: cell-based
Description: as §1

Solubility = assay type: physicochemical

Which “acute toxicity (survival)” value (mice) does the source give for O=[N+]([O-])c1cc(Cl)[nH]c1-c1cc(Cl)cc(Cl)c1O [pyrrolomycin E] here?
The value was “All mice survived”.

And the “acidity of the substance” value [1]?
Its value is “Weak acidic substance”.

What about the MIC [2] of the same molecule?
The MIC was 12.5 µg/mL (≈ 40.6 µM).

What about the MIC [3] of the same molecule?
Its MIC is > 100 µg/mL.

And the MIC [4]?
The MIC was 0.025 µg/mL (≈ 0.0813 µM).

What about the MIC [5] of the same molecule?
The MIC was 1.56 µg/mL (≈ 5.07 µM).

What about the MIC (Salmonella typhi 0-901-W) of the same molecule?
Its MIC is > 100 µg/mL.

And the MIC [6]?
The MIC was > 100 µg/mL.

What about the MIC (Proteus vulgaris OX-19) of the same molecule?
Its MIC is 6.25 µg/mL (≈ 20.3 µM).

And the MIC [7]?
The MIC was > 100 µg/mL.

And the MIC [8]?
Its MIC is 1.56 µg/mL (≈ 5.07 µM).

And the MIC [9]?
Its MIC is 1.56 µg/mL (≈ 5.07 µM).

And the MIC [10]?
Its MIC is > 100 µg/mL.

What about the Solubility (Solubility; acetone) of the same molecule?
Its Solubility is “Soluble”.

And the Solubility (Solubility; ethyl acetate)?
Its Solubility is “Soluble”.

And the Solubility (Solubility; methanol)?
Its Solubility is “Soluble”.

And the Solubility (Solubility; n-hexane)?
The Solubility was “sparingly soluble”.

What about the Solubility (Solubility; water) of the same molecule?
Its Solubility is “sparingly soluble”.
